Experimental data as given in ChEMBL document CHEMBL5584307, “Discovery of a Potent and Orally Bioavailable Xanthine Oxidase/Urate Transporter 1 Dual Inhibitor as a Potential Treatment for Hyperuricemia and Gout” (J Med Chem, 2024).

Tests used:
[1] = Toxicity in Sprague-Dawley rat assessed as development-limiting effect; conditions: in vivo
[2] = Clearance in Cynomolgous monkey at 1 mg/kg, iv measured upto 24 hrs by LC-MS/MS analysis; type: ADME, organism-based, Macaca fascicularis; conditions: cynomolgus monkey, in vivo
[3] = Toxicity in rat assessed as increase in liver weight at 60 to 120 mg/kg/day for 28 days; type: organism-based; conditions: in vivo, 672 h, dose 60-120 mg/kg/day, time 28 day
[4] = target: T1, Solute carrier family 22 member 12 (Homo sapiens, UniProt Q96S37); assay: Inhibition of URAT1 (unknown origin) by absorbance based assay
T1 sequence (Q96S37 whole entry): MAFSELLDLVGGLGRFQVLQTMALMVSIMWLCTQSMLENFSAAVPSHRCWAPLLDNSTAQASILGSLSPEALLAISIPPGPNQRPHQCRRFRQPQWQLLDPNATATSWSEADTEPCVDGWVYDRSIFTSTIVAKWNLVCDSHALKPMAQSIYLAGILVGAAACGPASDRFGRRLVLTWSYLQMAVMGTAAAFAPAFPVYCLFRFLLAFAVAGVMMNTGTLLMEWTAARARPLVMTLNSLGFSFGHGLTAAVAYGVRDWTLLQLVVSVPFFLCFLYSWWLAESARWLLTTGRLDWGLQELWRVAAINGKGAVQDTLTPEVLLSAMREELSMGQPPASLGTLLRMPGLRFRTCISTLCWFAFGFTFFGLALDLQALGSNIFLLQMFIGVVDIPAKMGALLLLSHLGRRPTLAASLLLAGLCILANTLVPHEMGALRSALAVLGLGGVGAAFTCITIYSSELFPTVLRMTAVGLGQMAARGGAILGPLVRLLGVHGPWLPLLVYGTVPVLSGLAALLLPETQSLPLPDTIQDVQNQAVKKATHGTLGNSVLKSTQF

[5] = Toxicity in cynomolgous monkey administered daily for 28 days; design: species or system Macaca fascicularis; conditions: cynomolgus monkey, in vivo; time 28 day
[6] = Toxicity in monkey; design: species or system Macaca mulatta; conditions: rhesus monkey, in vivo
[7] = Toxicity in cynomolgous monkey assessed as flatus in intestines at 200 mg/kg/day for 28 days consecutively; type: organism-based, Macaca fascicularis; conditions: cynomolgus monkey, in vivo, 672 h, time 28 day
[8] = AUC (0 to t) in male rat at 60 mg/kg/day for 28 days; type: ADME, organism-based; conditions: in vivo, time 28 day
[9] = target: Cytochrome P450 2D6 (Homo sapiens, UniProt P10635); assay: Inhibition of CYP2D6 in human liver microsomes in presence of NADPH by LC-MS/MS analysis; type: ADME, Microsome
Chain of Cytochrome P450 2D6 (P10635 whole entry): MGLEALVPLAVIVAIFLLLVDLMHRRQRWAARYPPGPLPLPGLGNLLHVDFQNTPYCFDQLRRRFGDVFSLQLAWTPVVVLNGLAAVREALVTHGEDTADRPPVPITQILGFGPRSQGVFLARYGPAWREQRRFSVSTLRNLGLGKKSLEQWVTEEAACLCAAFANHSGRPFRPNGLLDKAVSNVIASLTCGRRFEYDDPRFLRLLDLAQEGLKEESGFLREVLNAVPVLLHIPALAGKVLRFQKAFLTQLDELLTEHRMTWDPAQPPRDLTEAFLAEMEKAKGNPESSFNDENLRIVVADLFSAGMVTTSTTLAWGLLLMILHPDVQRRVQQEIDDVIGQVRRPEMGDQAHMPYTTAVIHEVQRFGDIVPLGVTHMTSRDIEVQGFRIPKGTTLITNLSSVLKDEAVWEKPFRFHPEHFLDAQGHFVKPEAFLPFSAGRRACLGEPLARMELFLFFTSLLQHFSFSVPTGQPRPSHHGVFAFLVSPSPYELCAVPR

[10] = Inhibition of SLC (unknown origin); design: species or system Homo sapiens
[11] = target: Cytochrome P450 2C9 (Homo sapiens, UniProt P11712); assay: Inhibition of CYP2C9 in human liver microsomes in presence of NADPH by LC-MS/MS analysis; type: ADME, Microsome
Chain of Cytochrome P450 2C9 (P11712 whole entry): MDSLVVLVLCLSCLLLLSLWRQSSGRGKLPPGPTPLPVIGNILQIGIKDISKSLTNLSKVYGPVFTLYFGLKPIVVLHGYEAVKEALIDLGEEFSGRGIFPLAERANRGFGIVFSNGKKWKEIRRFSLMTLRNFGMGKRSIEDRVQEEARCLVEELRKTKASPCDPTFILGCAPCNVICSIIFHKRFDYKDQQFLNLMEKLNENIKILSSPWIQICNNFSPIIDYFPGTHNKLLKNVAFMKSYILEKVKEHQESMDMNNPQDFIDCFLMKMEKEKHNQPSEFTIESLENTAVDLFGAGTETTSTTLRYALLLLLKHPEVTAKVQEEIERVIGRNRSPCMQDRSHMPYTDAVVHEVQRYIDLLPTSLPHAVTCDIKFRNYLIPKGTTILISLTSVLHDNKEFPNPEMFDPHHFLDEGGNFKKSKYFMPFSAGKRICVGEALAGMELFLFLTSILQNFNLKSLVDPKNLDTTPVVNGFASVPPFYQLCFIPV

[12] = Genotoxicity in Salmonella typhimurium TA98 by Ames test; type: toxicity; conditions: salmonella enterica subsp. enterica serovar typhimurium
[13] = AUC (last) in Beagle dog at 5 mg/kg, po measured upto 24 hrs by LC-MS/MS analysis; type: ADME, organism-based, Canis lupus familiaris; conditions: in vivo
[14] = AUC (last) in Cynomolgous monkey at 1 mg/kg, iv measured upto 24 hrs by LC-MS/MS analysis; type: ADME, organism-based, Macaca fascicularis; conditions: cynomolgus monkey, in vivo
[15] = Toxicity in rat assessed as increase in salivation at 120 mg/kg/day for 28 days; type: organism-based; conditions: in vivo, 672 h, time 28 day
[16] = target: Voltage-gated inwardly rectifying potassium channel KCNH2 (Homo sapiens, UniProt Q12809); assay: Inhibition of hERG by electrophysiology; type: toxicity
Chain of Voltage-gated inwardly rectifying potassium channel KCNH2 (Q12809 whole entry): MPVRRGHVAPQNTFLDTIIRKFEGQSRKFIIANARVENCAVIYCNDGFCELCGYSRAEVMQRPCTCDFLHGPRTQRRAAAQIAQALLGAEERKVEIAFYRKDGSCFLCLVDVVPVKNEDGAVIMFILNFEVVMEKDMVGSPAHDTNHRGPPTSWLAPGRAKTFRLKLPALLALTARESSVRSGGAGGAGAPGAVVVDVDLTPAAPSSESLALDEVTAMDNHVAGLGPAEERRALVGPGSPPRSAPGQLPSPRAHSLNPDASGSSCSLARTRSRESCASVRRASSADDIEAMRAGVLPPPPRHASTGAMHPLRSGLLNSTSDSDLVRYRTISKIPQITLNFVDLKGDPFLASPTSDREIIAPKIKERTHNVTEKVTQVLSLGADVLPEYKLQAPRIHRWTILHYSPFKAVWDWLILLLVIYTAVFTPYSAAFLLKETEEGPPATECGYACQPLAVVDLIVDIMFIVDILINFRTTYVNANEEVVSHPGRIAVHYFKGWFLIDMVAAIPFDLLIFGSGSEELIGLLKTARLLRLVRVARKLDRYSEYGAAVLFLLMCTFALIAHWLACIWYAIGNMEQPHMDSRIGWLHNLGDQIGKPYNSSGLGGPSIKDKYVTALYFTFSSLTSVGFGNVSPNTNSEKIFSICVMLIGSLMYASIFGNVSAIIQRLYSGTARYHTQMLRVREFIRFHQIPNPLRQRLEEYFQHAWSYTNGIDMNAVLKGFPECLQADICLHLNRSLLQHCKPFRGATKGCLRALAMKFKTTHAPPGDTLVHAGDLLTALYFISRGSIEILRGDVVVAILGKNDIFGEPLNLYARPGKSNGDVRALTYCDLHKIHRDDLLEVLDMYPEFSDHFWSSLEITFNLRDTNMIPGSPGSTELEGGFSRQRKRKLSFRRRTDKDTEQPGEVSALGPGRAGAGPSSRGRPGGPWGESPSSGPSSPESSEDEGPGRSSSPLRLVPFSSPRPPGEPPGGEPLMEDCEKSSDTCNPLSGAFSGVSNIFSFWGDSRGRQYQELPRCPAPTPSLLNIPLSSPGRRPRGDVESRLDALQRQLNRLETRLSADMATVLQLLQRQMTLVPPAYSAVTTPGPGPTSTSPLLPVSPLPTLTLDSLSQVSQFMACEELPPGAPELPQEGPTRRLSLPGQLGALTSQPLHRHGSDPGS

[17] = Toxicity in rat; conditions: in vivo
[18] = Ratio of drug concentration in Sprague-Dawley rat kidney to plasma at 3 mg/kg, po measured for 24 hrs by LC-MS/MS analysis; type: ADME, organism-based; conditions: kidney and plasma
[19] = Toxicity in rat administered daily for 28 days; conditions: in vivo, time 28 day
[20] = Half life in Beagle dog at 5 mg/kg, po measured upto 24 hrs by LC-MS/MS analysis; type: ADME, organism-based, Canis lupus familiaris; conditions: in vivo
[21] = Clearance in Beagle dog at 1 mg/kg, iv measured upto 24 hrs by LC-MS/MS analysis; type: ADME, organism-based, Canis lupus familiaris; conditions: in vivo
[22] = AUC (0 to t) in female rat at 60 mg/kg/day for 28 days; type: ADME, organism-based; conditions: in vivo, time 28 day
[23] = Genotoxicity in Salmonella typhimurium TA97 by Ames test; type: toxicity; conditions: salmonella enterica subsp. enterica serovar typhimurium
[24] = Toxicity in cynomolgous monkey assessed as development-limiting effect; design: species or system Macaca fascicularis; conditions: cynomolgus monkey, in vivo
[25] = Genotoxicity in Salmonella typhimurium TA1535 by Ames test; type: toxicity; conditions: salmonella enterica subsp. enterica serovar typhimurium
[26] = Oral bioavailability in overnight-fasted Sprague-Dawley rat at 5 mg/kg measured upto 24 hrs by LC-MS/MS analysis; type: ADME, organism-based; conditions: in vivo
[27] = Half life in Cynomolgous monkey at 5 mg/kg, po measured upto 24 hrs by LC-MS/MS analysis; type: ADME, organism-based, Macaca fascicularis; conditions: cynomolgus monkey, in vivo
[28] = Tmax in Tufted capuchin monkey at 30 mg/kg, po measured for 24 hrs by LC-MS/MS analysis; type: ADME, organism-based; conditions: sapajus apella, in vivo
[29] = Toxicity in rat assessed as increase in ALP level at 120 mg/kg/day for 28 days; type: organism-based; conditions: in vivo, 672 h, time 28 day
[30] = Genotoxicity in Salmonella typhimurium TA100 by Ames test; type: toxicity; conditions: salmonella enterica subsp. enterica serovar typhimurium

N#Cc1cc(-c2ccc(C(=O)O)c(O)c2)c2oc(F)cc2c1
Activity [1]: Non-Toxic | clearance [2]: 0.993 mL/min/kg | Activity [3]: Toxic | IC50 [4]: 31 nM | NOAEL at 672 h [5]: 30 mg/kg/day | MTD [6]: 1000 mg/kg | Activity [7]: Toxic | AUC(0-t) at 672 h [8]: 2250 µg·h/mL | IC50 [9]: > 50000 nM | IC50 [10]: > 628 nM | IC50 [11]: 2780 nM | Activity [12]: Non-Toxic | AUC(0-t) at 24 h [13]: 11.5 µg·h/mL | AUC(0-t) at 24 h [14]: 16.1 µg·h/mL | Activity [15]: Toxic | IC50 [16]: > 52000 nM | MTD [17]: 450 mg/kg | Kp at 24 h [18]: 0.56 | NOAEL at 672 h [19]: 60 mg/kg/day | half-life [20]: 2.82 h | clearance [21]: 5.07 mL/min/kg | AUC(0-t) at 672 h [22]: 2390 µg·h/mL | Activity [23]: Non-Toxic | Activity [24]: Non-Toxic | Activity [25]: Non-Toxic | bioavailability [26]: 145% | half-life [27]: 7.9 h | Tmax [28]: 0.8 h | Activity [29]: Toxic | Activity [30]: Non-Toxic
